The source of these data is US12252524B2, “GIP/GLP1 co-agonist compounds” (Eli Lilly and Company, priority 2018, dated 2025).

Numbered stars: 1 amine (or outer) side, 2 acyl side, 3 side chain; on linkers, the order of the positions; unused ones are H or OH. Square brackets hold non-standard residues; d marks the D form. Side chains are listed from the residue outwards. Peptide text beside a SMILES is read from it. * marks the point of attachment. C20 diacid = O=C(O)CCCCCCCCCCCCCCCCCCC(=O)*; C18 diacid = O=C(O)CCCCCCCCCCCCCCCCC(=O)*; αMePhe(2-F) = C[C@](N)(Cc1ccccc1F)C(=O)O; γGlu = O=C(O)[C@H](CCC(=O)[*:2])N[*:1]; αMeL = CC(C)C[C@](C)(N)C(=O)O; AEEA = NCCOCCOCC(=O)O; Aib = CC(C)(N)C(=O)O

Test [1] deals with T1, human Gcg receptor (Homo sapiens, UniProt P47871).
T1 construct: expressed in transfected cells; crude membranes
T1 sequence (P47871 26-477): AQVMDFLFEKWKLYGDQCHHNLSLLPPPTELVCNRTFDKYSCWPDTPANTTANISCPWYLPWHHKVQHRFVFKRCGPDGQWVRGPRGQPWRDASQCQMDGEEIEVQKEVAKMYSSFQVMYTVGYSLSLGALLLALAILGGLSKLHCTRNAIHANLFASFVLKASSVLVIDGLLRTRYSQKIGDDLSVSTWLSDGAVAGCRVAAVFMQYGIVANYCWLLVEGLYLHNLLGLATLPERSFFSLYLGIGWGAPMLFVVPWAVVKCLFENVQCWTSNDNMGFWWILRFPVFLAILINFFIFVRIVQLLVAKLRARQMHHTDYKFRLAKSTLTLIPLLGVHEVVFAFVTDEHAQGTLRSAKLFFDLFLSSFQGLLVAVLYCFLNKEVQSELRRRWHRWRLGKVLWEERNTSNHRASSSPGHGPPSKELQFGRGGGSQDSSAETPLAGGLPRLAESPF
Nature of the test: [125I]-Glucagon binding (SPA), human Gcg receptor. The settings on record: read-out: hGLcgR Ki, nM (SEM, n). An outline of the steps: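 Crude membranes from cells expressing the receptor, prepared by hypotonic lysis in 50 mM Tris HCl pH 7.5 with protease inhibitors, homogenization and differential centrifugation, were used in a WGA-bead SPA. Binding buffer: 25 mM HEPES pH 7.4, 2.5 mM CaCl2, 1 mM MgCl2, bacitracin, Tween-20.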

In test [2] the target is T2, human GIP receptor (Homo sapiens, UniProt P48546).
T2 construct: expressed in transfected cells; crude membranes
T2 sequence (P48546 22-466): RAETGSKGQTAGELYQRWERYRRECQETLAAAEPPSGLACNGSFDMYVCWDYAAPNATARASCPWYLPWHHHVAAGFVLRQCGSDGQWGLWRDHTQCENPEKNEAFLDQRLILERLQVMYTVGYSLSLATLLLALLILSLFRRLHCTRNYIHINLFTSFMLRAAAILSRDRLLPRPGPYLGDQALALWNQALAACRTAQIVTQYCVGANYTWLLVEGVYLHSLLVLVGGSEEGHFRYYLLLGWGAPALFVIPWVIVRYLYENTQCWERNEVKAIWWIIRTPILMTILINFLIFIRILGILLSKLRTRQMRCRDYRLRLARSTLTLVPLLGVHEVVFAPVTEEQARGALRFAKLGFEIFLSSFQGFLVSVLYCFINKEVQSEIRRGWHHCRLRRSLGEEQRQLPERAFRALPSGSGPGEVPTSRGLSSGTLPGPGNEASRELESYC
Kind of test: [125I]-GIP binding (SPA), human GIP receptor. The settings on record: read-out: hGIPR Ki, nM (SEM, n).

Test [3] concerns the target human GLP-1 receptor (GLP-1R) (Homo sapiens, UniProt P43220). Kind of test: cAMP pharmacological functional assay in presence of casein, hGLP-1R. Format: cell-based. As to conditions: HEK293 cells expressing hGLP-1R, 0.1% Casein, geometric mean; read-out: hGLP1R cAMP Rel EC50 nM (SEM, n).
In test [4] the target is T3, gastric inhibitory peptide receptor (GIPR) (Homo sapiens, UniProt P48546).
T3 sequence (P48546 22-466): T2 sequence (P48546 22-466)
Nature of the test: cAMP pharmacological functional assay in presence of casein, hGIPR. As to conditions: HEK293 cells expressing hGIPR, 0.1% Casein, geometric mean; read-out: hGIPR cAMP Rel EC50 nM (SEM, n). In kind it is cell-based.

The target in test [5] is T4, human GLP-1R (Homo sapiens, UniProt P43220). Nature of the test: [125I]-GLP-1 binding (SPA), human GLP-1 receptor. Further details: expressed in transfected cells; crude membranes. The settings on record: read-out: hGLP1R Ki, (nM) (SEM, n). The method in brief:
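Ki values are geometric means with SEM over independent replicates on different days, derived from IC50s fitted by four-parameter nonlinear regression. The assay used crude cell membranes in HEPES buffer, pH 7.4, containing CaCl2, MgCl2, bacitracin and TWEEN-20.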

The target in test [6] is T4, human GLP-1R. Kind of test: GLP-1R CHO cell β-arrestin recruitment assay. Format: cell-based. Further details: host or cells: CHO-K1 PathHunter cells, assay-ready frozen. The settings on record: for EC50: CHO-K1 cells, PathHunter β-arrestin-2 recruitment, 0.1% casein, read-out: hGLP1R B-Arrestin2 Rel EC50 uM (SEM, n); for hGLP1R B-Arrestin2 % Top: normalized to GLP-1 maximum control. An outline of the steps:
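Peptide-induced β-arrestin-2 recruitment measured by enzyme-fragment complementation luminescence after 90 min at 37 °C plus 60 min detection at RT.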

Test [7] has as its target T4, human GLP-1R. Nature of the test: GLP-1R HEK293 cell membrane [35S]GTPγS binding assay. Format: biochemical. As to conditions: HEK293 cell membranes expressing human GLP-1R, [35S]GTPγS binding; read-out: hGLP1R GTPgS Rel EC50 nM (SEM, n). On the set-up: expressed in transfected cells; host or cells: HEK293 cells expressing human GLP-1R; membranes. An outline of the steps:
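Agonist-driven Gαs activation read as [35S]GTPγS ([…]) binding to receptor-expressing HEK293 membranes, 30 min at room temperature, pH 7.4. Detection by anti-Gαs immunocapture on scintillation beads; EC50 derived from four-parameter logistic concentration-response fit.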
A general note: GTPγS is a poorly hydrolysed GTP analogue; its binding reports G protein activation.

T4 sequence (P43220 24-463): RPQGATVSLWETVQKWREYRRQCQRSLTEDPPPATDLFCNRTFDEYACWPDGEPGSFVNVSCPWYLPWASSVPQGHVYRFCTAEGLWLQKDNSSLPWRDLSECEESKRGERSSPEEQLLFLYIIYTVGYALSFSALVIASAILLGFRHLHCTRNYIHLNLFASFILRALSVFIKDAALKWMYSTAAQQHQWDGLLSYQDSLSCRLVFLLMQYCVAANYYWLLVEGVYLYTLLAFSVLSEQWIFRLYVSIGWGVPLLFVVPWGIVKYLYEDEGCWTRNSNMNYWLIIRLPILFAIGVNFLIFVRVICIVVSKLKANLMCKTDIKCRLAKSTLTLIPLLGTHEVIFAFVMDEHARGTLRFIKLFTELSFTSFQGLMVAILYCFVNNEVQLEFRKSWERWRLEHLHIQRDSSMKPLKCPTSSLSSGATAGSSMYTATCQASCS
human GLP-1 receptor (GLP-1R), sequence (P43220 24-463): as above

A word on the Ki: it is the dissociation constant of the complex between target and ligand, obtained from inhibition or displacement. By EC50 is commonly meant the concentration at which the effect is half-maximal. For `CC[C@H](C)[C@H](NC(=O)[C@H](CC(C)C)NC(=O)[C@](C)(Cc1ccc(O)cc1)NC(=O)[C@H](CCC(=O)O)NC(=O)[C@@H](NC(=O)[C@H](Cc1ccccc1)NC(=O)[C@H](CCC(=O)O)NC(=O)C(C)(C)NC(=O)[C@H](CCC(N)=O)NC(=O)[C@H](C)NC(=O)[C@H](CCCCNC(=O)COCCOCCNC(=O)COCCOCCNC(=O)CC[C@H](NC(=O)CCCCCCCCCCCCCCCCCCC(=O)O)C(=O)O)NC(=O)[C@H](CCCN)NC(=O)[C@H](CC(=O)O)NC(=O)[C@H](CC(C)C)NC(=O)[C@](C)(CC(C)C)NC(=O)[C@@H](NC(=O)[C@H](CO)NC(=O)[C@H](Cc1ccc(O)cc1)NC(=O)[C@H](CC(=O)O)NC(=O)[C@H](CO)NC(=O)[C@@H](NC(=O)[C@H](Cc1ccccc1)NC(=O)[C@@H](NC(=O)CNC(=O)[C@H](CCC(=O)O)NC(=O)C(C)(C)NC(=O)[C@H](N)Cc1ccc(O)cc1)[C@@H](C)O)[C@@H](C)O)[C@@H](C)CC)[C@@H](C)CC)C(=O)N[C@@H](C)C(=O)NCC(=O)NCC(=O)N1CCC[C@H]1C(=O)N[C@@H](CO)C(=O)N[C@@H](CO)C(=O)NCC(=O)N[C@@H](C)C(=O)N1CCC[C@H]1C(=O)N1CCC[C@H]1C(=O)N1CCC[C@H]1C(=O)N[C@@H](CO)C(N)=O` [Example 293], the figures for the Ki in test [1], in test [2] and in test [5] were 668 nM, 0.0775 nM and 1.64 nM, respectively. The EC50 was found to be 0.132 nM in test [3], 0.0562 nM in test [4], 0.00719 µM in test [6] and 0.368 nM in test [7]. Moreover, in test [6], the “hGLP1R B-Arrestin2 % Top” value was determined as 29.5%.

`CC[C@H](C)[C@H](NC(=O)[C@H](CC(C)C)NC(=O)[C@H](Cc1ccc(O)cc1)NC(=O)[C@H](CCC(=O)O)NC(=O)[C@@H](NC(=O)[C@H](Cc1ccccc1)NC(=O)[C@H](C)NC(=O)C(C)(C)NC(=O)[C@H](CCC(N)=O)NC(=O)[C@H](C)NC(=O)[C@H](CCCCNC(=O)COCCOCCNC(=O)COCCOCCNC(=O)CC[C@H](NC(=O)CCCCCCCCCCCCCCCCC(=O)O)C(=O)O)NC(=O)[C@H](CCCCN)NC(=O)[C@H](CC(=O)O)NC(=O)[C@H](CC(C)C)NC(=O)[C@H](CC(C)C)NC(=O)[C@@H](NC(=O)[C@H](CO)NC(=O)[C@H](Cc1ccc(O)cc1)NC(=O)[C@H](CC(=O)O)NC(=O)[C@H](CO)NC(=O)[C@@H](NC(=O)[C@](C)(Cc1ccccc1F)NC(=O)[C@@H](NC(=O)CNC(=O)[C@H](CCC(=O)O)NC(=O)C(C)(C)NC(=O)[C@@H](N)Cc1ccc(O)cc1)[C@@H](C)O)[C@@H](C)O)[C@@H](C)CC)[C@@H](C)CC)C(=O)N[C@@H](CCC(=O)O)C(=O)NCC(=O)NCC(=O)N1CCC[C@H]1C(=O)N[C@@H](CO)C(=O)N[C@@H](CO)C(=O)NCC(N)=O` [Example 302] (H-Y[Aib]EGT[αMePhe(2-F)]TSDYSILLDKK([AEEA-AEEA-γGlu-C18 diacid])AQ[Aib]AFIEYLIEGGPSSG-NH2): the figures for the Ki in test [1], in test [2] and in test [5] were 18.5 nM, 0.0289 nM and 0.617 nM, respectively. Moreover, the EC50 came out at 0.0275 nM in test [3], 0.0308 nM in test [4], 0.00219 µM in test [6] and 0.268 nM in test [7]. Besides, the “hGLP1R B-Arrestin2 % Top” value in test [6] is given as 98.4%.

As for `CC[C@H](C)[C@H](NC(=O)[C@H](CC(C)C)NC(=O)[C@H](Cc1ccc(O)cc1)NC(=O)[C@H](CCC(=O)O)NC(=O)[C@@H](NC(=O)[C@H](Cc1ccccc1)NC(=O)[C@H](C)NC(=O)C(C)(C)NC(=O)[C@H](CCC(N)=O)NC(=O)[C@H](C)NC(=O)[C@H](CCCCNC(=O)COCCOCCNC(=O)COCCOCCNC(=O)CC[C@H](NC(=O)CCCCCCCCCCCCCCCCC(=O)O)C(=O)O)NC(=O)[C@H](CCCCN)NC(=O)[C@H](CC(=O)O)NC(=O)[C@H](CC(C)C)NC(=O)[C@H](CC(C)C)NC(=O)[C@@H](NC(=O)[C@H](CO)NC(=O)[C@H](Cc1ccc(O)cc1)NC(=O)[C@H](CC(=O)O)NC(=O)[C@H](CO)NC(=O)[C@@H](NC(=O)[C@H](Cc1ccccc1)NC(=O)[C@@H](NC(=O)CNC(=O)[C@H](CCC(=O)O)NC(=O)C(C)(C)NC(=O)[C@@H](N)Cc1ccc(O)cc1)[C@@H](C)O)[C@@H](C)O)[C@@H](C)CC)[C@@H](C)CC)C(=O)N[C@@H](CCC(=O)O)C(=O)NCC(=O)NCC(=O)N1CCC[C@H]1C(=O)N[C@@H](CO)C(=O)N[C@@H](CO)C(=O)NCC(=O)N[C@@H](C)C(=O)N1CCC[C@H]1C(=O)N1CCC[C@H]1C(=O)N1CCC[C@H]1C(=O)N[C@@H](CO)C(N)=O` [Example 315], the results for the Ki in test [1], in test [2] and in test [5] were 539 nM, 0.0677 nM and 2.28 nM, respectively. Besides, the EC50 came out at 0.0651 nM in test [3], 0.0408 nM in test [4], 0.0199 µM in test [6] and 0.601 nM in test [7]. For the same molecule, the “hGLP1R B-Arrestin2 % Top” value in test [6] is 25.4%.

Consider `CC[C@H](C)[C@H](NC(=O)[C@H](CC(C)C)NC(=O)[C@H](Cc1ccc(O)cc1)NC(=O)[C@H](CCC(=O)O)NC(=O)[C@@H](NC(=O)[C@H](Cc1ccccc1)NC(=O)[C@H](C)NC(=O)C(C)(C)NC(=O)[C@H](CCC(N)=O)NC(=O)[C@H](C)NC(=O)[C@H](CCCCNC(=O)COCCOCCNC(=O)COCCOCCNC(=O)CC[C@H](NC(=O)CCCCCCCCCCCCCCCCCCC(=O)O)C(=O)O)NC(=O)[C@H](CCCCN)NC(=O)[C@H](CC(=O)O)NC(=O)[C@H](CC(C)C)NC(=O)[C@](C)(CC(C)C)NC(=O)[C@@H](NC(=O)[C@H](CO)NC(=O)[C@H](Cc1ccc(O)cc1)NC(=O)[C@H](CC(=O)O)NC(=O)[C@H](CO)NC(=O)[C@@H](NC(=O)[C@H](Cc1ccccc1)NC(=O)[C@@H](NC(=O)CNC(=O)[C@H](CCC(=O)O)NC(=O)C(C)(C)NC(=O)[C@@H](N)Cc1ccccc1)[C@@H](C)O)[C@@H](C)O)[C@@H](C)CC)[C@@H](C)CC)C(=O)N[C@@H](CCC(=O)O)C(=O)NCC(=O)NCC(=O)N1CCC[C@H]1C(=O)N[C@@H](CO)C(=O)N[C@@H](CO)C(=O)NCC(=O)N[C@@H](C)C(=O)N1CCC[C@H]1C(=O)N1CCC[C@H]1C(=O)N1CCC[C@H]1C(=O)N[C@@H](CO)C(N)=O` [Example 327] (H-F[Aib]EGTFTSDYSI[αMeL]LDKK([AEEA-AEEA-γGlu-C20 diacid])AQ[Aib]AFIEYLIEGGPSSGAPPPS-NH2; N-terminus assumed), for which the inhibition constant (Ki) stood at 114 nM in test [1], 0.0667 nM in test [2] and 2.1 nM in test [5]. Moreover, the EC50 in test [3] came to 0.27 nM; in test [4], 0.0548 nM; in test [6], 0.00379 µM; in test [7], 0.287 nM. In addition, in test [6], the “hGLP1R B-Arrestin2 % Top” value worked out at 41.6%.
